According to patent publication US9006191B2, “Silencing of polo-like kinase expression using interfering RNA” (Protiva Biotherapeutics, Inc., priority 2007, dated 2015):
“Also recorded” adds a separate entry of the source.

What was measured:
[1] = system: PLK-1 mRNA; assay: PLK-1 mRNA silencing in cell cultures (QuantiGene branched DNA assay); format: cell-based, human; settings: 0.12-30 nM SNALP, 24 h
Experimental: Target mRNA Quantitation: The QuantiGene® branched DNA assay (Panomics, Inc.; Fremont, Calif.) was used to quantify the reduction of target mRNA in cell cultures treated with SNALP. Cell lysates were prepared according to the manufacturer's instructions and used directly for PLK1 mRNA quantification. Relative PLK-1 mRNA levels are expressed relative to the vehicle (PBS) treated control cells. Specific probe sets used for detection of mRNA were designed to target human PLK-1 mRNA (Genbank Accession No. NM_005030). These probe sets are cross reactive with mouse PLK-1.
PLK-1 SNALP (“2:40” SNALP formulation: 2% PEG-cDMA; 40% DLinDMA; 10% DSPC; and 48% cholesterol) were tested for their ability to silence PLK-1 mRNA in HT29 cells. Cells were plated in duplicates at relatively high concentrations (˜10,000 cells/well). QuantiGene® analysis was performed at 24 hours following transfection to detect the level of mRNA down-regulation. A visual score of the transfected cells was obtained at 48 hours following transfection. Cell viability analysis was performed at 72 hours following transfection.
SNALP containing PLK1424 or PLK773 siRNA (“2:40” SNALP formulation: 2% PEG-cDMA; 40% DLinDMA; 10% DSPC; and 48% cholesterol) were tested for their effects on cell viability and silencing of PLK-1 mRNA in HT29 and LS174T human colon cancer cells. Cells were plated in triplicate at ˜10,000 cells/well. SNALP dosages were as follows: 30 nM; 10 nM; 3.3 nM; 1.1 nM; 0.37 nM; and 0.12 nM. Branched DNA mRNA assays were performed 24 hours following transfection. Cell viability assays were performed at 72 hours following transfection. SNALP containing a non-targeting (GFP) siRNA were used as a negative control. […] The effects on cell viability correlated with silencing of the target PLK-1 mRNA.

[2] = system: LS174T cells; assay: Apoptosis/Caspase 3/7 assay in LS174T cells; format: cell-based, human; settings: SNALP-formulated siRNA, 24-72 h
Experimental: This assay is based on the specific enzymatic cleavage of the Caspase 3/7 substrate (Z-DEVD)-2-Rhodamine 110 to a fluorogenic product and is used to quantify the level of apoptosis in cultured cells.
SNALP containing PLK1424 or PLK773 siRNA (“2:40” SNALP formulation: 2% PEG-cDMA; 40% DLinDMA; 10% DSPC; and 48% cholesterol) were further tested for their effects on inducing the apoptosis of LS174T cells. Cells were plated in triplicate at ˜10,000 cells/well. SNALP dosages were as follows: 30 nM; 10 nM; and 3.3 nM. Caspase 3/7 assays were performed at 24, 48, and 72 hours following transfection. SNALP containing a non-targeting (GFP) siRNA were used as a negative control.

[3] = system: Flt3-ligand derived murine dendritic cells; assay: Cytokine induction in murine Flt3L dendritic cell cultures (ELISA); format: cell-based, mouse; settings: murine Flt3L DC, 5 μg/ml siRNA in SNALP, 24 h
Experimental: Cytokine Induction Assays: Flt3-ligand derived murine dendritic cells (Flt3L DC) were generated as described by Gilliet et al. (J. Exp. Med., 195:953-958) using 100 ng/ml murine Flt3-ligand (PeproTech Inc.; Rocky Hill, N.J.) supplemented media. Femurs and tibiae of female Balb/C mice were isolated and rinsed in sterile PBS. The ends of bones were cut and marrow harvested in complete media (RPMI 1640, 10% heat inactivated FBS, 1% penicillin/streptomycin, 2 mM L-glutamine, 1 mM sodium pyruvate, 25 mM HEPES, 50 μM 2-mercaptoethanol). Bone marrow cells were passed through a 70 μm strainer, centrifuged at 1000 rpm for 7 minutes, and resuspended in complete media supplemented with 100 ng/ml murine Flt3L to 2×10^6 cells/ml. 2 mls of cells were seeded in 6-well plates and 1 ml fresh complete media added every two or three days. On day 9 of culture, non-adherent cells were washed in complete media and plated into 96-well plates at concentrations ranging from 0.5 to 2.5×10^5 cells/well. 2′OMe-modified and unmodified (0/0) PLK-1 SNALP were diluted in PBS and added to Flt3L DC cultures at 5 μg/ml siRNA. Cells were incubated for 24 hours at 37° C. before supernatants were assayed for cytokines by ELISA.
Cytokine ELISA: Interferon-α and IL-6 in culture supernatants were quantified using sandwich ELISA kits according to manufacturer's instructions. These were mouse IFN-α (PBL Biomedical; Piscataway, N.J.) and mouse IL-6 (eBioscience; San Diego, Calif.).
In vitro immune stimulation assays. Mouse Flt3L dendritic cell cultures were generated as described previously (65). In brief, bone marrow from Balb/C mice was harvested in complete media (RPMI 1640, 10% FBS, 1% penicillin/streptomycin, 2 mM L-glutamine, 1 mM sodium pyruvate, 25 mM HEPES, 50 uM 2-mercaptoethanol), passed through a 70 micron strainer and resuspended to 2×10^6 cells/mL in complete media supplemented with 100 ng/mL murine Flt3L (Peprotech). Cells were seeded in 6-well plates and 1 mL fresh Flt3L media added every three days. On day 9 of culture, non-adherent cells were plated into 96 well plates at a concentration 2×10^5 cells/well. Formulated siRNA were diluted in PBS and added to the cells for 24 h before supernatants were assayed for cytokines by ELISA.
Cytokine ELISA. All cytokines were quantified using sandwich ELISA kits.

Row | Substance | PLK-1 mRNA levels ([1]; HT29 cells) | PLK-1 mRNA levels ([1]; LS174T cells) | induction of apoptosis (Caspase 3/7 activity) [2] | cytokine (IL-6, IFN-α) response [3]
1 | PLK773: siRNA to human PLK-1, SEQ ID NO:3/4 (UU overhang form 218/219) (chain 1 AGACCUACCUCCGGAUCAA; chain 2 UUGAUCCGGAGGUAGGUCU; RNA, backbone not given here) | effective at reducing PLK-1 mRNA levels | effective at reducing PLK-1 mRNA levels | induced a significant amount of apoptosis in LS174T cells at all SNALP doses tested | high levels of both IFNα and IL-6
2 | PLK1424-2/A: 2′OMe-modified PLK1424 duplex, SEQ ID NO:214/215 (same SEQ IDs as PLK1424 1/3 of Table 11) (chain 1 AGANCACCCNCCUNAAANAUU; chain 2 UAUUUAANGAGGGUGANCUUU; siRNA; 2'-O-methyl modifications at selected positions, key for n not given here) |  |  |  | completely abrogated
3 | PLK1424: siRNA to human PLK-1, SEQ ID NO:1/2 (UU overhang form 211/212) (chain 1 AGAUCACCCUCCUUAAAUA; chain 2 UAUUUAAGGAGGGUGAUCU; further chemistry not given here) | effective at reducing PLK-1 mRNA levels | effective at reducing PLK-1 mRNA levels | induced a significant amount of apoptosis in LS174T cells at all SNALP doses tested; also recorded: dose-dependent induction of apoptosis 48 h after siRNA transfection | high levels of both IFNα and IL-6
